Data on one molecule can be found in ChEMBL document CHEMBL3832062, “DailyMed|setid=a9c47f08-bd02-4731-aaf7-42173155b2d0 | XENICAL- orlistat capsule|A-S Medication Solutions LLC”.

The data set in a line: Pharmacokinetic parameters for Orlistat evaluated after of oral administration of Orlistat capsules. The following applies: human, in vivo, dosed compound id 42, dosed compound name ORLISTAT, tissue Plasma. The data set is classed as ADME, organism-based.

Molecule `CCCCCCCCCCC[C@@H](C[C@@H]1OC(=O)[C@H]1CCCCCC)OC(=O)[C@H](CC(C)C)NC=O` [ORLISTAT] registered a half-life of 1 to 2 h. Also, the fraction unbound (read-out: Protein binding) fell in the range of 0.01 to 0.99.
